# Results from ChEMBL document CHEMBL1177848, “Synthesis of novel 6,6a,7,8-tetrahydro-5H-naphtho[1,2-e]pyrimido[4,5-b][1,4]diazepines under microwave irradiation as potential anti-tumor agents” (2010).
# Active and inactive are the calls of the source. The calls are words filed in the database; no cut-off is given here.
# Experiments:
# [1] = test system: KM12; test: Growth inhibition of human KM12 cells at 1 uM after 48 hrs by sulforhodamine B assay; format: functional, cell-based
# [2] = test system: LOX IMVI; test: Growth inhibition of human LOXIMVI cells at 1 uM after 48 hrs by sulforhodamine B assay; format: functional, cell-based
# [3] = test system: OVCAR-3; test: Growth inhibition of human OVCAR-3 cells at 1 uM after 48 hrs by sulforhodamine B assay; format: functional, cell-based
# [4] = test system: A498; test: Growth inhibition of human A498 cells at 1 uM after 48 hrs by sulforhodamine B assay; format: functional, cell-based
# [5] = test system: CAKI-1; test: Growth inhibition of human Caki1 cells at 1 uM after 48 hrs by sulforhodamine B assay; format: functional, cell-based
# [6] = test system: UACC-257; test: Growth inhibition of human UACC257 cells after 48 hrs by sulforhodamine B assay; format: functional; settings: UACC-257, 48 h
# [7] = test system: Hs-578T; test: Growth inhibition of human Hs 578T cells at 1 uM after 48 hrs by sulforhodamine B assay; format: functional, cell-based
# [8] = test system: A549; test: Growth inhibition of human A549 cells at 1 uM after 48 hrs by sulforhodamine B assay; format: functional, cell-based
# [9] = test system: NCI-H23; test: Growth inhibition of human NCI-H23 cells at 1 uM after 48 hrs by sulforhodamine B assay; format: functional, cell-based
# [10] = test system: HCC 2998; test: Growth inhibition of human HCC2998 cells at 1 uM after 48 hrs by sulforhodamine B assay; format: functional, cell-based
# [11] = test system: RXF 393; test: Growth inhibition of human RXF393 cells after 48 hrs by sulforhodamine B assay; format: functional; settings: RXF 393, 48 h
# [12] = test system: PC-3; test: Growth inhibition of human PC3 cells at 1 uM after 48 hrs by sulforhodamine B assay; format: functional, cell-based
# [13] = test system: MDA-MB-468; test: Growth inhibition of human MDA-MB-468 cells after 48 hrs by sulforhodamine B assay; format: functional; settings: MDA-MB-468, 48 h
# [14] = test system: HOP-92; test: Growth inhibition of human HOP92 cells at 1 uM after 48 hrs by sulforhodamine B assay; format: functional, cell-based
# [15] = test system: OVCAR-4; test: Growth inhibition of human OVCAR4 cells after 48 hrs by sulforhodamine B assay; format: functional; settings: OVCAR-4, 48 h
# [16] = test system: CAKI-1; test: Growth inhibition of human Caki1 cells after 48 hrs by sulforhodamine B assay; format: functional; settings: CAKI-1, 48 h
# [17] = test system: SK-MEL-5; test: Growth inhibition of human SK-MEL-5 cells after 48 hrs by sulforhodamine B assay; format: functional; settings: SK-MEL-5, 48 h
# [18] = test system: SN12C; test: Growth inhibition of human SN12C cells after 48 hrs by sulforhodamine B assay; format: functional
# [19] = test system: RPMI-8226; test: Growth inhibition of human RPMI8226 cells at 1 uM after 48 hrs by sulforhodamine B assay; format: functional, cell-based
# [20] = test system: EKVX; test: Growth inhibition of human EKVX cells at 1 uM after 48 hrs by sulforhodamine B assay; format: functional, cell-based
# [21] = test system: MDA-MB-231; test: Growth inhibition of human MDA-MB-231 cells after 48 hrs by sulforhodamine B assay; format: functional; settings: MDA-MB-231, 48 h
# [22] = test system: SF-295; test: Growth inhibition of human SF295 cells after 48 hrs by sulforhodamine B assay; format: functional; settings: SF-295, 48 h
# [23] = test system: COLO 205; test: Growth inhibition of human COLO205 cells at 1 uM after 48 hrs by sulforhodamine B assay; format: functional, cell-based
# [24] = test system: OVCAR-3; test: Growth inhibition of human OVCAR-3 cells after 48 hrs by sulforhodamine B assay; format: functional; settings: OVCAR-3, 48 h
# [25] = test system: LOX IMVI; test: Growth inhibition of human LOXIMVI cells after 48 hrs by sulforhodamine B assay; format: functional
# [26] = test system: A498; test: Growth inhibition of human A498 cells after 48 hrs by sulforhodamine B assay; format: functional; settings: A498, 48 h
# [27] = test system: SF-268; test: Growth inhibition of human SF268 cells at 1 uM after 48 hrs by sulforhodamine B assay; format: functional, cell-based
# [28] = test system: IGROV-1; test: Growth inhibition of human IGROV1 cells after 48 hrs by sulforhodamine B assay; format: functional; settings: IGROV-1, 48 h
# [29] = test system: SNB-75; test: Growth inhibition of human SNB75 cells at 1 uM after 48 hrs by sulforhodamine B assay; format: functional, cell-based
# [30] = test system: UACC-62; test: Growth inhibition of human UACC62 cells after 48 hrs by sulforhodamine B assay; format: functional; settings: UACC-62, 48 h
# [31] = test system: NCI-H23; test: Growth inhibition of human NCI-H23 cells after 48 hrs by sulforhodamine B assay; format: functional; settings: NCI-H23, 48 h
# [32] = test system: T47D; test: Growth inhibition of human T47D cells after 48 hrs by sulforhodamine B assay; format: functional
# [33] = test system: NCI-H522; test: Growth inhibition of human NCI-H522 cells at 1 uM after 48 hrs by sulforhodamine B assay; format: functional, cell-based
# [34] = test system: Malme-3M; test: Growth inhibition of human MALME-3M cells after 48 hrs by sulforhodamine B assay; format: functional
# [35] = test system: MDA-MB-231; test: Growth inhibition of human MDA-MB-231 cells at 1 uM after 48 hrs by sulforhodamine B assay; format: functional, cell-based
# [36] = test system: MDA-MB-435; test: Growth inhibition of human MDA-MB-435 cells after 48 hrs by sulforhodamine B assay; format: functional; settings: MDA-MB-435, 48 h
# [37] = test system: TK-10; test: Growth inhibition of human TK10 cells at 1 uM after 48 hrs by sulforhodamine B assay; format: functional, cell-based
# [38] = test system: RXF 393; test: Growth inhibition of human RXF393 cells at 1 uM after 48 hrs by sulforhodamine B assay; format: functional, cell-based
# [39] = test system: SR; test: Growth inhibition of human SR cells at 1 uM after 48 hrs by sulforhodamine B assay; format: functional, cell-based
# [40] = test system: SK-MEL-5; test: Growth inhibition of human SK-MEL-5 cells at 1 uM after 48 hrs by sulforhodamine B assay; format: functional, cell-based
# [41] = test system: MDA-MB-468; test: Growth inhibition of human MDA-MB-468 cells at 1 uM after 48 hrs by sulforhodamine B assay; format: functional, cell-based
# [42] = test system: DU-145; test: Growth inhibition of human DU145 cells at 1 uM after 48 hrs by sulforhodamine B assay; format: functional, cell-based
# [43] = test system: K562; test: Growth inhibition of human K562 cells at 1 uM after 48 hrs by sulforhodamine B assay; format: functional, cell-based
# [44] = test system: NCI/ADR-RES; test: Growth inhibition of human NCI/ADR-RES cells after 48 hrs by sulforhodamine B assay; format: functional
# [45] = test system: NCI-H522; test: Growth inhibition of human NCI-H522 cells after 48 hrs by sulforhodamine B assay; format: functional; settings: NCI-H522, 48 h
# [46] = test system: U-251; test: Growth inhibition of human U251 cells at 1 uM after 48 hrs by sulforhodamine B assay; format: functional, cell-based
# [47] = read-out: LC50 (the source's name)
smiles,measurement,setting,value
Nc1nc(N)c2c(n1)NC(c1ccccc1)C1CCc3ccccc3C1=N2 (stereo unspecified),growth inhibition (GI),[1],inactive
same,growth inhibition (GI),[2],inactive
same,growth inhibition (GI),[3],inactive
same,growth inhibition (GI),[4],inactive
same,growth inhibition (GI),[5],inactive
same,GI50,[6],3.72 µM
same,CC50,[6]; [47],42.6 µM
same,growth inhibition (GI),[7],inactive
same,growth inhibition (GI),[8],inactive
same,growth inhibition (GI),[9],inactive
same,growth inhibition (GI),[10],inactive
same,GI50,[11],4.89 µM
same,LC50 (50% lethal concentration),[11],66.7 µM
same,growth inhibition (GI),[12],inactive
same,GI50,[13],0.473 µM
same,CC50,[13]; [47],20.8 µM
same,growth inhibition (GI),[14],inactive
same,GI50,[15],3.06 µM
same,LC50 (50% lethal concentration),[15],62.3 µM
same,GI50,[16],3.97 µM
same,CC50,[16]; [47],48.5 µM
same,GI50,[17],0.638 µM
same,LC50,[17],6.35 µM
same,GI50,[18],7.33 µM
same,CC50,[18]; [47],50.8 µM
same,growth inhibition (GI),[19],inactive
same,growth inhibition (GI),[20],inactive
same,GI50,[21],6.02 µM
same,CC50,[21]; [47],51.9 µM
same,GI50,[22],1.69 µM
same,LC50 (50% lethal concentration),[22],34.4 µM
same,growth inhibition (GI),[23],inactive
same,GI50,[24],3.48 µM
same,"LC50 (lethal concentration, 50% cell kill)",[24],39.4 µM
same,GI50,[25],3.79 µM
same,LC50,[25],40.6 µM
same,GI50,[26],2.29 µM
same,LC50,[26],30.2 µM
same,growth inhibition (GI),[27],inactive
same,GI50,[28],4.45 µM
same,LC50 (concentration killing 50% of cells),[28],62.3 µM
same,growth inhibition (GI),[29],inactive
same,GI50,[30],3.11 µM
same,LC50,[30],45 µM
same,GI50,[31],4.56 µM
same,LC50,[31],57.4 µM
same,GI50,[32],4.57 µM
same,CC50,[32]; [47],> 100 µM
same,growth inhibition (GI),[33],inactive
same,GI50,[34],2.13 µM
same,LC50,[34],82.5 µM
same,growth inhibition (GI),[35],inactive
same,GI50,[36],2.93 µM
same,LC50 (concentration killing 50% of cells),[36],39.9 µM
same,growth inhibition (GI),[37],inactive
same,growth inhibition (GI),[38],inactive
same,growth inhibition (GI),[39],inactive
same,growth inhibition (GI),[40],inactive
same,growth inhibition (GI),[41],inactive
same,growth inhibition (GI),[42],inactive
same,growth inhibition (GI),[43],inactive
same,GI50,[44],3.13 µM
same,LC50 (concentration killing 50% of cells),[44],> 100 µM
same,GI50,[45],4.53 µM
same,LC50,[45],65.4 µM
same,growth inhibition (GI),[46],inactive
